Laboratory results as given in ChEMBL document CHEMBL1201862, “PubChem BioAssay data set” (2004).
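Cells were grown in 96-well plates and exposed to each compound for 48 hours at five concentrations; endpoints were interpolated linearly between bracketing concentrations, or set to the highest concentration if not reached. GI50 = concentration required for 50% inhibition of growth.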 The source made the active and inactive calls. Cut-off read from the data, not from the text of the source: active = GI50 up to about 1.1 µM and inactive = higher.

Assays:
Test in all cases: NCI anticancer screen, dose series, 48 h
SW-620 = tested on: SW-620
CCRF-CEM = tested on: CCRF-CEM
HOP-62 = tested on: HOP-62
NCI-H226 = tested on: NCI-H226
M19-MEL = tested on: M19-MEL
OVCAR-3 = tested on: OVCAR-3
CAKI-1 = tested on: CAKI-1
MOLT-4 = tested on: MOLT-4
A498 = tested on: A498
SF-539 = tested on: SF-539
SNB-75 = tested on: SNB-75
LOX IMVI = tested on: LOX IMVI
K562 = tested on: K562
786-0 = tested on: 786-0
OVCAR-4 = tested on: OVCAR-4
SNB-78 = tested on: SNB-78
SR = tested on: SR
T47D = tested on: T47D
Hs-578T = tested on: Hs-578T
MDA-N = tested on: MDA-N

Compound | GI50 (SW-620) | GI50 (CCRF-CEM) | GI50 (HOP-62) | GI50 (NCI-H226) | GI50 (M19-MEL) | GI50 (OVCAR-3) | GI50 (CAKI-1) | GI50 (MOLT-4) | GI50 (A498) | GI50 (SF-539) | GI50 (SNB-75) | GI50 (LOX IMVI) | GI50 (K562) | GI50 (786-0) | GI50 (OVCAR-4) | GI50 (SNB-78) | GI50 (SR) | GI50 (T47D) | GI50 (Hs-578T) | GI50 (MDA-N)
OCCN1CCN(CCO)Cc2ccccc2OCCOc2ccccc2C1 | > 100 µM (inactive) | > 100 µM (inactive) | > 100 µM (inactive) | > 100 µM (inactive) | > 100 µM (inactive) | > 100 µM (inactive) | > 100 µM (inactive) | > 100 µM (inactive) | > 100 µM (inactive) | > 100 µM (inactive) | 33 µM (inactive) | 29.8 µM (inactive) | > 100 µM (inactive) | > 100 µM (inactive) | > 100 µM (inactive) | > 100 µM (inactive) | > 100 µM (inactive) | – | – | –
CCOC(=O)C1S/C(=N\c2ccc(Cl)cc2Cl)N=C1C (stereo not given) | > 100 µM (inactive) | – | 51.9 µM (inactive) | > 100 µM (inactive) | 86.5 µM (inactive) | 96.6 µM (inactive) | 66.2 µM (inactive) | – | 39.3 µM (inactive) | 53 µM (inactive) | 26.1 µM (inactive) | 74.5 µM (inactive) | > 100 µM (inactive) | 53.3 µM (inactive) | 20.8 µM (inactive) | 60.7 µM (inactive) | – | – | – | –
COc1ccc(C(c2ccc(C(C)C)cc(=O)c2O)c2ccc3cccnc3c2O)cc1 (stereo not given) | 3.68 µM (inactive) | 0.604 µM (active) | 0.387 µM (active) | 0.991 µM (active) | 0.484 µM (active) | 1.24 µM (inactive) | 1.79 µM (inactive) | 0.558 µM (active) | – | 0.357 µM (active) | 0.155 µM (active) | 0.499 µM (active) | 0.399 µM (active) | 1.63 µM (inactive) | 2.88 µM (inactive) | 1.05 µM (active) | 1 µM (active) | – | – | –
COC(=O)C1Cc2c([nH]c3ccccc23)C=N1 (stereo not given) | > 100 µM (inactive) | > 100 µM (inactive) | > 100 µM (inactive) | > 100 µM (inactive) | 74.8 µM (inactive) | > 100 µM (inactive) | > 100 µM (inactive) | > 100 µM (inactive) | > 100 µM (inactive) | > 100 µM (inactive) | 60.8 µM (inactive) | 51.8 µM (inactive) | > 100 µM (inactive) | > 100 µM (inactive) | > 100 µM (inactive) | > 100 µM (inactive) | > 100 µM (inactive) | – | – | –
O=C1C(=C2CCCC2)CCC1CN1CCCCC1 (stereo not given) | 16.4 µM (inactive) | 14.3 µM (inactive) | – | – | 32.4 µM (inactive) | 16.9 µM (inactive) | – | 18.5 µM (inactive) | 19.4 µM (inactive) | 21 µM (inactive) | 0.489 µM (active) | – | 16.3 µM (inactive) | 13.6 µM (inactive) | 16.5 µM (inactive) | 19.6 µM (inactive) | 20.7 µM (inactive) | – | – | –
C=CC1(C)CCC2=C(CCC3C(C)(C(=O)OC)CCCC23C)C1=O (stereo not given) | 17.6 µM (inactive) | 21.4 µM (inactive) | 16.8 µM (inactive) | 23.8 µM (inactive) | 18.7 µM (inactive) | 19.7 µM (inactive) | 30.3 µM (inactive) | – | 14.8 µM (inactive) | – | – | 18.5 µM (inactive) | 38.8 µM (inactive) | – | 14.7 µM (inactive) | 18.8 µM (inactive) | 19 µM (inactive) | – | – | –
O=C(CC1Sc2ccccc2NC1=O)Nc1ccc(Cl)cc1 (stereo not given) | > 100 µM (inactive) | > 100 µM (inactive) | > 100 µM (inactive) | > 100 µM (inactive) | > 100 µM (inactive) | > 100 µM (inactive) | > 100 µM (inactive) | > 100 µM (inactive) | > 100 µM (inactive) | 50.2 µM (inactive) | 13.1 µM (inactive) | > 100 µM (inactive) | > 100 µM (inactive) | – | 18.2 µM (inactive) | > 100 µM (inactive) | > 100 µM (inactive) | – | – | –
N#CC1C(=O)C(=O)N(c2ccccc2)C1=O (stereo not given) | > 100 µM (inactive) | – | > 100 µM (inactive) | > 100 µM (inactive) | > 100 µM (inactive) | > 100 µM (inactive) | > 100 µM (inactive) | – | > 100 µM (inactive) | > 100 µM (inactive) | 81.3 µM (inactive) | > 100 µM (inactive) | > 100 µM (inactive) | > 100 µM (inactive) | > 100 µM (inactive) | > 100 µM (inactive) | – | – | – | –
CS(=O)(=O)OCCCNCCCOS(C)(=O)=O | 1140 µM (inactive) | 262 µM (inactive) | 729 µM (inactive) | 1680 µM (inactive) | 1580 µM (inactive) | 2630 µM (inactive) | 650 µM (inactive) | 189 µM (inactive) | 1330 µM (inactive) | 1270 µM (inactive) | 1580 µM (inactive) | 569 µM (inactive) | 1580 µM (inactive) | 881 µM (inactive) | 2130 µM (inactive) | 2100 µM (inactive) | 148 µM (inactive) | 573 µM (inactive) | 2090 µM (inactive) | 2350 µM (inactive)
CN1Cc2cc3c(cc2-c2ccccc21)OCO3 | > 100 µM (inactive) | > 100 µM (inactive) | – | – | > 100 µM (inactive) | > 100 µM (inactive) | – | > 100 µM (inactive) | > 100 µM (inactive) | > 100 µM (inactive) | > 100 µM (inactive) | > 100 µM (inactive) | > 100 µM (inactive) | > 100 µM (inactive) | > 100 µM (inactive) | > 100 µM (inactive) | > 100 µM (inactive) | – | – | –
CC12CC3CC(C1)CC(N=[N+]=[N-])(C3)C2 | > 100 µM (inactive) | > 100 µM (inactive) | > 100 µM (inactive) | > 100 µM (inactive) | > 100 µM (inactive) | > 100 µM (inactive) | > 100 µM (inactive) | > 100 µM (inactive) | > 100 µM (inactive) | > 100 µM (inactive) | > 100 µM (inactive) | > 100 µM (inactive) | > 100 µM (inactive) | > 100 µM (inactive) | > 100 µM (inactive) | > 100 µM (inactive) | – | – | – | –
O=C(CCc1ccccc1)CC1OC(=O)C(Cl)=C1Cl (stereo not given) | 12.1 µM (inactive) | 29.6 µM (inactive) | 26.2 µM (inactive) | – | 17.7 µM (inactive) | 20.3 µM (inactive) | 29.5 µM (inactive) | 33 µM (inactive) | 34 µM (inactive) | 31 µM (inactive) | 53.6 µM (inactive) | 18.6 µM (inactive) | 35 µM (inactive) | 19.1 µM (inactive) | 96.4 µM (inactive) | 46.5 µM (inactive) | 30.5 µM (inactive) | – | – | –
OCC1OC(n2cnc3c2NC=NC[C@H]3O)C(O)C1O (stereo not given in full) | 317 µM (inactive) | 172 µM (inactive) | > 337 µM (inactive) | 173 µM (inactive) | > 450 µM (inactive) | > 450 µM (inactive) | 226 µM (inactive) | 318 µM (inactive) | 208 µM (inactive) | > 450 µM (inactive) | 412 µM (inactive) | 170 µM (inactive) | 249 µM (inactive) | – | > 450 µM (inactive) | > 450 µM (inactive) | – | – | – | –
COc1ccc(C(=O)C(C(=O)C(=O)NC2C3CC4CC(C3)CC2C4)c2ccc(OC)cc2)cc1 (stereo not given) | > 100 µM (inactive) | > 100 µM (inactive) | > 100 µM (inactive) | > 100 µM (inactive) | > 100 µM (inactive) | > 100 µM (inactive) | > 100 µM (inactive) | > 100 µM (inactive) | > 100 µM (inactive) | > 100 µM (inactive) | 16.6 µM (inactive) | > 100 µM (inactive) | > 100 µM (inactive) | > 100 µM (inactive) | > 100 µM (inactive) | > 100 µM (inactive) | > 100 µM (inactive) | – | – | –
Clc1ccccc1C(n1ncc2ccccc21)n1ncc2ccccc21 | 29.7 µM (inactive) | 28.5 µM (inactive) | > 100 µM (inactive) | 33.7 µM (inactive) | 23.1 µM (inactive) | 80.4 µM (inactive) | 30.6 µM (inactive) | 18.9 µM (inactive) | 35.6 µM (inactive) | 56.9 µM (inactive) | 17 µM (inactive) | 49.9 µM (inactive) | 28.4 µM (inactive) | 65.9 µM (inactive) | 51.6 µM (inactive) | 71.1 µM (inactive) | 27 µM (inactive) | – | – | –
